Source: US6133313A, “Insecticidal avocadofurans and triolein” (The Regents of the University of California, priority 1998, dated 2000)

What was measured:
Format in all cases: in vivo, Spodoptera exigua
S. exigua larvae = assay: growth inhibition and mortality of synthetic avocadofurans and triolein in diet bioassay; set-up: key to GI (growth index): growth index calculated per J. Chem. Ecol. 19:1109 (1993), imax = 3; conditions: for 7-d Instar / 7-d Larval Weight: mean ± SE
Protocol: S. exigua larvae were used in all experiments. Larvae were reared on artificial diet modified from U.S.D.A. Agric. Res. Serv., Prod. Res. Rep., 1208:1 (1969), and maintained at 28+2° C., 14:10; light:dark (L:D) photoperiod.
The colony was collected from Orange Co., Calif. and had new genetic material added within 12 months prior to the study. The age of the cohorts tested was standardized by using neonates within 12 hours of eclosion. All bioassays were maintained at 28+2° C. 75% relative humidity (RH), and at 14:10 (L:D) photoperiod with fluorescent lighting.
The insecticidal activity of the fractions was tested with artificial diet bioassays. Treated diets were prepared by transferring 750 μl of acetone solutions of each fraction (equivalent to 300 mg crude idioblast cell oil) into 50-ml polypropylene centrifuge tubes (Fisher, Pittsburgh Pa.), evaporating the acetone, adding 2 ml of 0.1% Tween-80 solution (Fisher), homogenizing with an ultrasonic homogenizer (Co le-Parmer, Chicago Ill.), and adding prepared diet to produce a final weight of 15 g containing the equivalent of 2% idioblast oil. The mixture was vortexed for 3 mm.
Control diet was prepared by mixing 2 ml of Tween solution and 13 g of artificial diet to produce a final weight of 15 g. Control and treated diets were poured into 24-well (15.9 mm diameter and 15.9 mm depth) bioassay trays (C-D International Inc., Pitman N.J.). One neonate was added per well, and trays were placed in an incubator under the previously described conditions. Twenty-four neonates were tested for each fraction and control. Mortality and larval weights were recorded after 7 days.
The effect of the synthetically produced avocado furan compounds (>95% purity) and commercially available triolein (Sigma, St. Louis, Mo.) were tested on larval growth and mortality of S exigua. Treated and control diet were prepared as previously described.
Six different compound concentrations, chosen on the basis of studies with the oil fractions, were evaluated for both 2-(pentadecyl)furan and 2-(heptadecyl)furan: 0 (control), 600, 750, 900, 1050, and 1200 μg/g. Also, six concentrations of triolein (subfraction 1-1-12) were tested: 0 (control), 7000, 8000, 9000, 10000, and 11000 μg/g.
Twenty-four neonates were used per treatment. Bioassays were conducted as described in Example 4, and replicated 4 times for each concentration (i.e., a total of 96 larvae were tested for each concentration). Larval weight, instar, and mortality were recorded after 7 days […].
(§1) EC (effective concentration) values were calculated by subtracting the mean larval weight for each treatment from the mean weight of the controls, and dividing by the mean weight of the controls. LC (lethal concentration) values were obtained using probit analysis as described in Probit Analysis (1971) Cambridge University Press, Cambridge, UK. GI (growth index) and RGI (relative growth index) values were calculated as described in J. Chem. Ecol., 19:1109 (1993), but using an imax of 3 (the stage attained by most control larvae after 7 d). Statistical comparisons were conducted using SuperAnova Abacus Concept Inc., Berkeley, Calif. (1989).

neonate S. exigua = assay: individual toxicity of avocadofurans and triolein in artificial diet
Protocol: In this study, individual activity of avocadofurans was investigated quantitatively. For this purpose, eight concentrations of the avocadofurans (1) and (4) and triolein (8) were tested. Results are seen in FIG. 6.
Following pilot studies, eight concentrations of each were tested: 0, 0.5, 1, 1.5, 2, 2.5, 3, and 3.5 μmoles g^~1 diet. Also, five concentrations of triolein were tested: 0; 1,000; 2,000; 3,000; and 4,000 μg g^~1 diet. Because triolein was not compared to a structurally similar compound, a more standard dietary formulation of μg g-^1 was used rather than ^~ moles g^-1 in all triolein-treated bioassays.
Treated and control diet were prepared as described above. For each concentration the compounds were dissolved in 10 ml of Tween solution and mixed using an ultrasonic homogenizer. Untreated diet was added to make a total of 100 g and then vortexed for 3 mm. Control diet was prepared by mixing 10 ml of the Tween solution with 90 g of artificial diet to produce a final weight of 100 g. Control and treated diets were poured into 30 ml plastic cups. One neonate was placed in each cup and cups were held in an incubator. Fifteen larvae were tested at each concentration, and assays were replicated 4 times (total of 60 larvae/treatment). For each diet treatment, 9-d larval instar and weight, pupal weights, times to pupation, and larval mortality were recorded.
as §1

S. exigua = assay: synergistic/joint toxicity of avocadofuran and triolein combinations
Source text: The treatments were as follows: Control, 2-(pentadecyl)furan, 2-(heptadecyl)furan, triolein, individually, and 2-(pentadecyl)furan combined with 2-(heptadecyl)furan and triolein, 2-(pentadecyl)furan combined with triolein, and 2-(heptadecyl)furan combined with triolein. Because the combined LC25 s for both avocadofurans exceed their LC50 values, a concentration for each was adjusted so that when added it would approximate the value of the avocadofurans LC50 (see Table 2). These concentrations were used whenever both avocadofurans were combined in the same treatment. Treatments were replicated four times, with 15 larvae per replicate to a total of 60 larvae/treatment.
Joint effects were determined by testing all combinations of LC25 s (estimated from probit lines shown in Table 1) of the three compounds for toxicity to S. exigua. The treatments were: control, 2-(pentadecyl)furan, 2-(heptadecyl)furan, triolein, 2-(pentadecyl)furan+triolein, 2-(heptadecyl)furan+triolein, and 2-(pentadecyl)furan+2-(heptadecyl)furan+triolein. Because the combined LC25 s for both avocadofurans exceeded their LC50 values (due to a steep slope of their LC lines), a concentration for each was used so that when added together it would approximate the value of the avocadofurans LC50 (Table 1). These concentrations were used whenever both avocadofurans were combined in the same treatment.
Treatments were replicated four times, with 15 larvae per replicate (total of 60 larvae/treatment). Dietary treatment preparations and bioassay procedures were conducted as described in Example 4. For each diet treatment, 9-d larval instar and weight, pupal weights, times to pupation, and larval mortality were recorded.

SMILES: CCCCCCCCCCCCCCCCCc1ccco1 [2-(heptadecyl)furan (4), 2-(heptadecyl)furan]
- GI (growth index) (S. exigua larvae; 600 μg/g): 0.73
- percent reduction in larval weight vs control (S. exigua larvae; 600 μg/g): 79.46%
- 7-d Instar (S. exigua larvae; 600 μg/g): 2.25 ± 0.06
- 7-d Larval Weight (S. exigua larvae; 600 μg/g): 6.44 ± 0.44 mg
- GI (growth index) (S. exigua larvae; 750 μg/g): 0.62
- percent reduction in larval weight vs control (S. exigua larvae; 750 μg/g): 87.14%
- 7-d Instar (S. exigua larvae; 750 μg/g): 1.95 ± 0.06
- 7-d Larval Weight (S. exigua larvae; 750 μg/g): 4.03 ± 0.44 mg
- GI (growth index) (S. exigua larvae; 900 μg/g): 0.56
- percent reduction in larval weight vs control (S. exigua larvae; 900 μg/g): 89.84%
- 7-d Instar (S. exigua larvae; 900 μg/g): 1.87 ± 0.06
- 7-d Larval Weight (S. exigua larvae; 900 μg/g): 3.19 ± 0.30 mg
- GI (growth index) (S. exigua larvae; 1050 μg/g): 0.46
- percent reduction in larval weight vs control (S. exigua larvae; 1050 μg/g): 93.55%
- 7-d Instar (S. exigua larvae; 1050 μg/g): 1.65 ± 0.07
- 7-d Larval Weight (S. exigua larvae; 1050 μg/g): 2.02 ± 0.16 mg
- GI (growth index) (S. exigua larvae; 1200 μg/g): 0.23
- percent reduction in larval weight vs control (S. exigua larvae; 1200 μg/g): 95.93%
- 7-d Instar (S. exigua larvae; 1200 μg/g): 1.43 ± 0.08
- 7-d Larval Weight (S. exigua larvae; 1200 μg/g): 1.28 ± 0.16 mg
- mortality (S. exigua larvae; 600 to 900 μg/g): < 15%
- reduction of larval development and growth (S. exigua larvae; 600 to 900 μg/g): > 75%
- mortality at 600 µg/g (S. exigua larvae; Spodoptera exigua, feed or water, 168 h, 600 μg/g, 7 d): 2.08%
- mortality at 750 µg/g (S. exigua larvae; Spodoptera exigua, feed or water, 168 h, 750 μg/g, 7 d): 4.2%
- mortality at 900 µg/g (S. exigua larvae; Spodoptera exigua, feed or water, 168 h, 900 μg/g, 7 d): 10.4%
- mortality at 1050 µg/g (S. exigua larvae; Spodoptera exigua, feed or water, 168 h, 1050 μg/g, 7 d): 16.7%
- mortality at 1200 µg/g (S. exigua larvae; Spodoptera exigua, feed or water, 168 h, 1200 μg/g, 7 d): 54.2%
- LC50 (95% FL) (S. exigua larvae; in diet): 1206 µg/g
- comparative toxicity and growth inhibition (S. exigua larvae; in words): more toxic and growth inhibitory to S. exigua than either of the unsaturated compounds (2) and (6)
- inhibition of larval growth (S. exigua larvae; in words): significantly inhibited larval growth
- Relative Growth Index (RGI) vs log concentration regression (FIG. 4) (S. exigua larvae; log (μg/g)): y=4.82-1.47*log(x), r^2 =0.89
- LC25 (95% FL) (neonate S. exigua; avocadofurans, larval stage): 1.02(0.70-1.29) μmoles g^-1 of diet
- effect on pupal weight (FIG. 7) (neonate S. exigua; in words): significantly reduced
- larval developmental time from neonate to pupa (FIG. 8) (neonate S. exigua; in words): significantly prolonged
- Relative Growth Index (RGI) (FIG. 10) (neonate S. exigua; in words, increasing concentrations): decreased with increasing concentrations
- LC50 (neonate S. exigua; larval stage): 2.1 μmoles g^-1 diet
- concentration significantly reducing pupal weight (FIG. 7A) (neonate S. exigua; lowest concentration vs controls): ≥ 3 µmol/g
- Mortality (%) using LC25 (S. exigua; in vivo): 23.3%
- Survival to pupation (S. exigua; in vivo): 76.6%
- Weight, 9-d larvae (S. exigua; mean ± spread): 54.2 ± 5.9 mg
- Weight, Pupae (S. exigua; mean ± spread): 112.8 ± 2.6 mg
- Developmental times (S. exigua; neonate-pupa, in d (unit assumed)): 18.0
